In patent US11058654B2, “Compositions and methods for the treatment of hemoglobinopathies and thalassemias” (AXCELLA HEALTH INC., priority 2018, dated 2021):
Where two headings read alike, the source gives them in different places.

Assays:
[1] = Plasma pharmacokinetics after oral gavage in male Sprague-Dawley rats; type: in vivo; set-up: AUC(0-t): concentration or dose not given beside the values; conditions: rat
Method: A pharmacokinetic (PK) analysis was performed on plasma concentrations of various combinations of amino acid compounds administered by oral gavage to male Sprague-Dawley rats. Four animals were dosed with RCitNacQCarLHKVS, a test article comprising ten amino acid components: arginine, citrulline, N-acetylcysteine, glutamine, carnitine, leucine, histidine, lysine, valine, and serine (Table 19). Animals were fasted for 2 hours prior to dose administration. Plasma samples were taken immediately pre-dose and 0.5, 1, 2, 3, 4, and 5 hours post-dose.
Bioanalysis of collected plasma samples for amino acid content was performed at Axcella Health using an LC-MS method (Section 2.1). Bioanalytical data were analyzed using noncompartmental analysis with Phoenix® WinNonLin® (v8.1).
An LC/MS method utilizing HILIC chromatography and high-resolution mass spectrometry was used to quantify amino acids in rat plasma. The samples were prepared by protein precipitation and spiked with stable-labeled amino acid internal standard for each analyte. […] QCs, spiked into rat plasma, were utilized to assess the accuracy of the method.
PK parameters of test article components were determined from individual rat plasma concentration-time data by employing a noncompartmental approach using Phoenix WinNonlin® (Version 8.1) software. Nominal times were used to calculate the toxicokinetic parameters. […] This program analyzed data using the standard methods described by Gibaldi and Perrier (see M. Gibaldi and D. Perrier, Pharmacokinetics, 2nd edition, New York: Marcel-Dekker, Inc.; 1982.).

IL-6 = test: LPS-induced IL-6 secretion in primary human PBMC-derived macrophages (ELISA); type: cell-based; conditions: Donor 2; in words
Method: (§1) Unpurified buffy coats (Research Blood Components) were carefully poured into 50 mL centrifuge tubes and diluted with room temperature Dulbecco's Phosphate Buffered Saline (dPBS) with Calcium and Magnesium (Gibco). Diluted buffy coats were further divided into four total 50 mL centrifuge tubes at 20 mL per tube. Lymphocyte Separation Medium (Corning) was carefully pipetted to the bottom of each centrifuge tube. Mixtures were centrifuged at 850× g for 32 minutes at 20° C. with 0 deceleration and acceleration.
(§2) The PBMC layer was separated from other components after centrifugation and added to new 50 mL centrifuge tube containing 25 mL dPBS. Total volume was brought up to 50 mL with dPBS and centrifuged at 600× g for 10 minutes at 20° C. with acceleration of 9, deceleration of 5. Supernatant was carefully removed from cell pellets. The cell pellets were resuspended using 10 mL dPBS. Total volume was then brought up to 50 mL using dPBS and centrifuged at 450× g for 5 min at 20° C. with acceleration of 9, deceleration of 9. The supernatant removal and cell pellet resuspension was repeated again.
(§3) The supernatant was then carefully removed from cell pellets. Cell pellets were resuspended in 10 mL dPBS without calcium or magnesium and filtered through a 70 uM cell strainer. The total PBMC number was determined using a Cellometer K2 automated cell counter. A total of 5E6 cells were saved for flow cytometric analysis. Remaining cells were centrifuged at 490× g for 5 minutes at 20° C. with acceleration of 9, deceleration of 9.
(§4) CD14+ cells were selected using EasySep™ Human CD14 Positive Selection Kit II ([…] Technologies). Cells were resuspended in cold EasySep™ Buffer ([…] Technologies) at 1×10^8 cells/mL. A total of 100 uL/mL EasySep™ Human CD14 Positive Selection Cocktail II was added to the cell suspension, mixed, and incubated at room temperature for 10 minutes. A total of 100 uL/mL RapidSpheres were added to the mixture and incubated at room temperature for 3 minutes after mixing, then RoboSep buffer was added to bring up the total volume to 10 mL. The mixture in a 15 mL tube was placed in magnet and incubated at room temperature for 3 minutes. Supernatant was discarded and 10 mL fresh EasySep™ buffer was added to 15 mL tube. The addition of RoboSep buffer, mixing, and discarding of supernatant was repeated two more times.
(§5) Negative and positive fractions were centrifuged at 490× g for 5 minutes at 20° C. with acceleration of 9, deceleration of 9, and resuspended in DMEM (Gibco) and 10% Heat Inactivated Fetal Bovine Serum (Atlanta Bio) and Penicillin/Streptomycin. Cells were counted and centrifuged again at […] for 5 minutes at 20° C. with acceleration of 9, deceleration of 9. After centrifugation, cell were resuspended in DMEM (Gibco) and 10% Heat Inactivated Fetal Bovine Serum (Atlanta Bio) and Penicillin/Streptomycin containing 500 U/mL […] and plated at 1-2×10^6 cells/mL on 10 cm tissue culture plates. Cells were kept in 37° C., 5% CO2 in between feedings/harvest.
(§6) Cells were fed every 3-4 days by removing media and unattached cells, centrifuging at 490× g for 5 minutes at 20 C with acceleration of 9, deceleration of 9, and resuspending in fresh DMEM (Gibco) and 10% Heat Inactivated Fetal Bovine Serum (Atlanta Bio) and Penicillin/Streptomycin containing GM-CSF. Resuspended cells were seeded back onto 10 cm tissue culture plates and incubated at 37° C., 5% CO2. Differentiated macrophages were used for subsequent experiments.
(§7) Primary human PMBC derived macrophages were seeded on day 0 at 3.0E4 cells per well in 96-well microplates (ThermoFisher) in Dulbecco's Modified Eagle Medium (DMEM) (Gibco) supplemented with penicillin-streptomycin (Hyclone) and 10% heat inactivated fetal bovine serum (HI-FBS) (Atlanta Bio) and incubated overnight at 37° C., 5% CO2. On day 1, cells were washed once with 150 uL per well DPBS (Gibco) and treated with 75 uL of: • a. […]

TNFa = test: LPS-induced TNFa secretion in primary human PBMC-derived macrophages (ELISA); type: cell-based; conditions: Donor 2; in words
Method: as §1, §2, §3, §4, §5, §6, §7

VCAM-1 = VCAM-1 cell integrated intensity in HLMVEC treated with TNFa; type: cell-based, human; conditions: 0.5 ng/mL TNFα; amino acids at 20×; 24 hours; in words
From the text: A VEC model was employed to assess the ability of amino acids to influence aspects of vascular dysfunction in SCD. TNFa treatment of healthy donor HLMVEC mimics the SCD disease state and induces expression of adhesion markers ICAM-1 and VCAM-1, and secretion of proinflammatory cytokine IL-6. It is established that levels of ICAM-1, VCAM-1, and IL-6 can contribute to SCD pathology and correlate with the incidence and severity of complications in SCD patients. The VEC model sought to test the ability of amino acids to reduce the TNFa-induced disease phenotype by lowering expression of adhesion markers (ICAM-1 and VCAM-1) and inflammatory cytokines (IL-6) while promoting VEC health and viability.
Primary Human Lung Microvascular Endothelial Cells (HLMVEC; Lonza) were seeded at 6,000 cells per well in Endothelial Cell Growth Basal Medium-2 (Lonza) supplemented with Fetal Bovine Serum (FBS; Lonza), human EGF (Lonza), human VEGF (Lonza), R3-Insulin-like Growth Factor-1 (Lonza), ascorbic acid (Lonza), hydrocortisone (Lonza), human FGF-beta (Lonza), and gentamicin/amphotericin-b (Lonza) in a 96-well plate (Thermo Fisher). The cells were incubated for 45 minutes at room temperature, then incubated overnight at 37° C./5% CO2.
Following overnight incubation, cell were washed once with 150 μL of Dulbecco's phosphate buffered saline (DPBS; Gibco), and then treated with Endothelial Basal Medium MCB-131 (amino acid, glucose, sodium pyruvate, and phenol red free; US Biologicals) containing a defined custom amino acid concentration based on physiological concentrations in blood of patients with SCD (thus recapitulating observed metabolic imbalances such as the depletion of certain essential amino acids including arginine and aspartate and enrichment of certain non-essential amino acids including glutamate and asparagine), dialyzed FBS (Hyclone), human EGF (Lonza), human VEGF (Lonza), R3-Insulin-like Growth Factor-1 (Lonza), ascorbic acid (Lonza), hydrocortisone (Lonza), human FGF-beta (Lonza), and gentamicin/amphotericin-b (Lonza), glucose, 10 mM HEPES, sodium pyruvate, and sodium bicarbonate supplemented with one of the following: • a. PBS (vehicle control), • b. 0.5 ng/mL Tumor Necrosis Factor alpha (TNFα) and PBS, or; • c. 0.5 ng/mL TNFα and amino acid treatments at 20× mean physiological concentrations in plasma based on values published in the Human Metabolome Database (HMDB) in PBS.
After 24 hours of treatment, cells were washed once with 150 μL of DPBS (Gibco), then fixed with 4% paraformaldehyde. […]
Antibody binding was detected by fluorescence microscopy using a high content imager (Molecular Devices). Images were analyzed using MetaXpress 6 software to determine the integrated intensity per cell for each wavelength corresponding to ICAM-1 or VCAM-1.

[2] = system: RBCs of healthy whole blood; test: RBC deformability (LORRCA elongation index), ex vivo TBHP oxidation of healthy whole blood; type: cell-based, human; conditions: healthy donor 2, single amino acid treatments, in words
From the text: Whole blood from healthy African American and/or Hispanic donors was obtained from Research Blood Components, LLC based on the following donor selection criteria: Adult age (between 18 and 50 years), normal BMI (<30), and absence of other confounding clinical conditions. Whole blood from SCD donors were obtained from BioIVT based on the following donor selection criteria: Patients with genotypes HbSS, HbSC, HbS/β^0 and at least 1-2 months gap since last blood transfusion. Whole blood was shipped on ice on the same day as blood draw. Upon receipt, the blood sample was aliquoted and stored in the refrigerator until used for studies.
RBC deformability measurements were conducted with the Laser Optical Rotational Red Cell Analyzer (LORRCA) from RR Mechatronics in a temperature-controlled environment (37° C.). Briefly, an even layer of RBCs suspended in polyvinylpyrrolidone (PVP) is subjected to shear stress gradient (0.3 to 30 Pa) through two concentric cylinders and the resulting changes in RBC shape or deformability are measured by a laser beam diffraction pattern. The captured images of RBC shape in response to increasing shear stress are then analyzed by the LORRCA program to calculate Elongation Index (EI).
Healthy RBCs have higher deformability≥0.5 EI and SCD RBCs have lower deformability or EI values as studied by LORRCA ektacytometry in the field. […] The induced hemolysis model in this disclosure involves use of tert-butyl hydroperoxide (TBHP) to lower EI of RBCs.
The ex vivo hemolysis study disclosed here involves overnight treatment of whole blood with vehicle as a control and specific amino acids followed by rapid oxidation (5 min) with TBHP. Method for oxidation of whole blood with tert-butyl hydroperoxide has been used in prior literature (Diederich L, et al, Front Physiol. 2018 May 11; 9:332). RBC deformability or shape changes are then measured with LORRCA ektacytometry.
Whole blood aliquots stored in the fridge were brought up to room temperature while gently shaking on a rocker at low speed for an hour to ensure gradual and uniform suspension of red blood cells prior to deformability measurements. Vehicle control used in the study was 1× Dulbecco's […]) and amino acids disclosed herein were added (at either final […] or 2.5 mM concentration as indicated) to corresponding vehicle and amino acid treatment conditions. The samples were then incubated overnight at 37° C. Next day, 25 μL of whole blood was taken from each treatment condition and added to 5 mL Elon ISO viscous solution from RR Mechatronics. The sample was inverted 15-20 times to ensure proper mixing of the treated RBCs with the Elon ISO solution followed by loading the sample on LORRCA and capturing RBC deformability or shape measurements over the applied shear gradient. The remaining whole blood treatments were returned to incubator (37° C.) until deformability measurements were completed for all treatments. To the remaining whole blood treatment samples, TBHP solution (5.0-6.0 M in Decane, Sigma) was added at 2.5 mM final concentration from a 100 mM freshly prepared stock and incubated for further 5 min at 37° C. 25 μL of this TBHP-treated sample was immediately removed at the end of the 5 min incubation and added to the Elon ISO solution for RBC deformability measurement after oxidation. Included in the Tables 13-15 are EI measurements at ½ EImax shear stress 1.69 Pa and EImax shear stress 30 Pa from these studies and FIG. 1 captures EI measurements for all shear stress points for the indicated treatment conditions.

[3] = plasma, Mean, oral gavage of RCitNacQCarLHKVS, male Sprague-Dawley rats, read-out: AUC0-5 h
[4] = plasma, Mean, oral gavage of RCitNacQCarLHKVS, male Sprague-Dawley rats, read-out: Cmax
[5] = plasma, Mean, oral gavage of RCitNacQCarLHKVS, male Sprague-Dawley rats, read-out: Tmax
[6] = male, Sprague-Dawley, in vivo, po

Q: With `CC(C)[C@H](N)C(=O)O` [Valine] as the compound, how does the AUC(0-t) [1, 3] read?
A: Its AUC(0-t) is 463 µM·h.

Q: What about the Cmax [1, 4] of the same compound?
A: The Cmax was 126 µM.

Q: And the Tmax [1, 5]?
A: Its Tmax is 1 h.

Q: With `C[N+](C)(C)CC(O)CC(=O)[O-]` (stereo not shown) [Carnitine] as the compound, how does the AUC(0-t) [1, 3] read?
A: The AUC(0-t) was 237 µM·h.

Q: And the Cmax [1, 4]?
A: Its Cmax is 83.8 µM.

Q: And the Tmax [1, 5]?
A: The Tmax was 5 h.

Q: What does the source list for `NC(=O)NCCC[C@H](N)C(=O)O` [Citrulline]?
A: AUC(0-t) [1, 3]: 2090 µM·h; Cmax [1, 4]: 583 µM; Tmax [1, 5]: 2.5 h

Q: For `N[C@@H](CO)C(=O)O` [Serine], which AUC(0-t) [1, 3] is on record?
A: Its AUC(0-t) is 1030 µM·h.

Q: What about the Cmax [1, 4] of the same compound?
A: The Cmax was 285 µM.

Q: What about the Tmax [1, 5] of the same compound?
A: The Tmax was 2.25 h.

Q: With `CC(C)C[C@H](N)C(=O)O` [Leucine] as the compound, how does the “effect on LPS-induced IL-6 secretion” value (IL-6) read?
A: The value was “increased”.

Q: And the AUC(0-t) [1, 3]?
A: The AUC(0-t) was 586 µM·h.

Q: And the Cmax [1, 4]?
A: The Cmax was 170 µM.

Q: And the Tmax [1, 5]?
A: Its Tmax is 0.5 h.

Q: And the “effect on LPS-induced TNFa secretion” value (TNFa)?
A: The value was “increased”.

Q: Which “VCAM-1 expression in HLMVEC” value (VCAM-1) does the source give for `NC(=O)NCCC[C@H](N)C(=O)O` [Cit, citrulline] here?
A: Its value is “moderate effect”.

Q: And the “EI over vehicle control, ½ EImax and EImax” value [2]?
A: The value was “higher than the vehicle”.

Q: What does the source list for `C[N+](C)(C)CC(O)CC(=O)[O-]` (stereo not shown) [Car, carnitine]?
A: VCAM-1 expression in HLMVEC (VCAM-1): moderate effect; EI over vehicle control, ½ EImax and EImax [2]: higher than the vehicle

Q: Which results are given for `NCCCC[C@H](N)C(=O)O` [Lysine]?
A: AUC(0-t) [1, 3]: 1350 µM·h; Cmax [1, 4]: 337 µM; Tmax [1, 5]: 1 h

Q: With `N[C@@H](Cc1c[nH]cn1)C(=O)O` [Histidine] as the compound, how does the AUC(0-t) [1, 6] read?
A: Its AUC(0-t) is 157 µM·h.

Q: And the Cmax [1, 6]?
A: The Cmax was 41.9 µM.

Q: And the Tmax [1, 6]?
A: The Tmax was 1.25 h.

Q: Which “effect on LPS-induced TNFa secretion” value (TNFa) does the source give for `CC[C@H](C)[C@H](N)C(=O)O` [Isoleucine] here?
A: The value was “increased”.
